Test results from publication PMC7539012, “Hyperphosphorylated tau aggregation and cytotoxicity modulators screen identified prescription drugs linked to Alzheimer's disease and cognitive functions” (Scientific Reports, 2020).
Counter-ions that a name gives are not always drawn.

Tested on: T1, 1N4R p-tau
T1 construct: made in house; host or cells: E. coli (PIMAX system)
Test: p-tau aggregation modulator screen of 1280-compound library (ThS fluorescence net change over 16 h);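 further: 30 µM compound with 6 µM p-tau over 16 h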
Type: biochemical

[1] = p-tau aggregation modulator screen of the compound library, ThS fluorescence net change
[2] = p-tau aggregation modulator screen of 1280-compound library, ThS fluorescence net change
[3] = 1280-compound library screen, ThS fluorescence net change over 16 h
[4] = library screen, ThS fluorescence net change over 16 h with p-tau

Compound | ThS net change [2] | ThS net change [3] | further results
CN(C)C(=N)N=C(N)N [Metformin hydrochloride] |  |  | ThS net change [1]: 415
CC(=O)OC(C)C[N+](C)(C)C (stereo not drawn) [Methacholine chloride] | 370 |  | 
C=C1c2cccc(O)c2C(=O)C2=C(O)[C@]3(O)C(=O)C(C(N)=O)=C(O)[C@@H](N(C)C)[C@@H]3[C@@H](O)[C@H]12 [Methacycline hydrochloride] |  |  | ThS net change [1]: 537
CC[N+](C)(CC)CCOC(=O)C1c2ccccc2Oc2ccccc21 [Methantheline bromide] |  | 400 | 
CN(C)CCN(Cc1cccs1)c1ccccn1 [Methapyrilene hydrochloride] | 370 |  | 
CC(=O)/N=c1/sc(S(N)(=O)=O)nn1C [Methazolamide] | 377 |  | 
C1N2CN3CN1CN(C2)C3 [Methenamine] |  | 391 | 
COC(=O)Nc1nc2cc(SC(C)C)ccc2[nH]1 [Methiazole] | 365 |  | 
Cn1cc[nH]c1=S [Methimazole] |  | 393 | 
CSc1ccc2c(c1)C(N1CCN(C)CC1)Cc1ccccc1S2.O=C(O)/C=C\C(=O)O (stereo not drawn) [Methiothepin maleate] |  | 379 | 
COc1ccccc1OCC(O)COC(N)=O (stereo not drawn) [Methocarbamol] |  | 409 | 
CN(Cc1cnc2nc(N)nc(N)c2n1)c1ccc(C(=O)N[C@@H](CCC(=O)O)C(=O)O)cc1 [Methotrexate] |  |  | ThS net change [4]: 326
COc1ccc2c(c1)N(C[C@H](C)CN(C)C)c1ccccc1S2.O=C(O)/C=C\C(=O)O [Methotrimeprazine maleat salt] | 355 |  | 
COc1ccc(OC)c(C(O)C(C)N)c1 (stereo not drawn) [Methoxamine hydrochloride] |  | 405 | 
Cc1cc(C(C)(C)CC(C)(C)C)ccc1OCCOCC[N+](C)(C)Cc1ccccc1.[Cl-] [Methyl benzethonium chloride] | 348 |  | 
C[N+]1(C)[C@@H]2CC[C@H]1C[C@@H](OC(=O)C(CO)c1ccccc1)C2 (stereo partly drawn) [Methylatropine nitrate] |  |  | ThS net change [1]: 413
C[C@](N)(Cc1ccc(O)c(O)c1)C(=O)O [Methyldopa (L,-)] |  |  | ThS net change [1]: 447

Compound | ThS net change [2] | ThS net change [3] | further results
CCOC(=O)[C@@](C)(N)Cc1ccc(O)c(O)c1 [Methyldopate hydrochloride] |  | 385 | 
CC[C@@H](CO)NC(=O)[C@@H]1C=C2c3cccc4[nH]cc(c34)C[C@H]2N(C)C1 [Methylergometrine maleate] |  |  | ThS net change (1280-compound library screen, […]): 393
C[C@H]1NC(=O)NC1=O [Methylhydantoin-5-(D)] |  | 384 | 
CC1NC(=O)NC1=O (stereo not drawn) [Methylhydantoin-5-(L)] |  |  | ThS net change [1]: 449
C[C@H]1C[C@@H]2[C@H]([C@@H](O)C[C@@]3(C)[C@H]2CC[C@]3(O)C(=O)CO)[C@@]2(C)C=CC(=O)C=C12 [Methylprednisolone, 6-alpha] | 340 |  | 
Cc1cc2c(cc1S(N)(=O)=O)S(=O)(=O)CCC2 [Meticrane] | 368 |  | 
CN1CCCC(CC2c3ccccc3Sc3ccccc32)C1 (stereo not drawn) [Metixene hydrochloride] |  | 386 | 
CCN(CC)CCNC(=O)c1cc(Cl)c(N)cc1OC.Cl [Metoclopramide monohydrochloride] |  |  | ThS net change [4]: 299
Cc1ccccc1N1C(=O)c2cc(S(N)(=O)=O)c(Cl)cc2NC1C (stereo not drawn) [Metolazone] | 364 |  | 
CC(=O)Nc1c(I)c(C(=O)N[C@H]2C(O)O[C@H](CO)[C@@H](O)[C@@H]2O)c(I)c(N(C)C(C)=O)c1I (stereo partly drawn) [Metrizamide] |  | 400 | 
Cc1ncc([N+](=O)[O-])n1CCO [Metronidazole] | 365 |  | 
CC(C)(C(=O)c1cccnc1)c1cccnc1 [Metyrapone] | 353 |  | 
CC1(O)CCOC(=O)C1 (stereo not drawn) [Mevalonic-D, L acid lactone] |  |  | ThS net change [1]: 438
CC[C@H](C)C(=O)O[C@H]1CCC=C2C=C[C@H](C)[C@H](CC[C@@H]3C[C@@H](O)CC(=O)O3)[C@H]21 [Mevastatin] |  |  | ThS net change [1]: 497
Cc1cccc(C)c1OCC(C)N (stereo not drawn) [Mexiletine hydrochloride] |  | 381 | 
CN1CCN2c3ccccc3Cc3ccccc3C2C1.Cl (stereo not drawn) [Mianserine hydrochloride] | 366 |  | 
